Experimental data from patent publication EP3720857B1, “2-OXO-5H-CHROMENO[4,3-B]PYRIDINES FOR USE IN THE TREATMENT OF HEPATITIS B” (Galapagos NV, priority 2017, dated 2019).
pIC50: −log10 of the molar value.

The compounds below were run on hepatitis virus B (HBV) infection (assay: HepG2 NTCP assay (HBcAg staining as marker of HBV infection)). Settings: HepG2-NTCP cells infected with HBV, HBV core antigen (HBcAg) as marker of infection.
Assay type: cell-based
How it was run: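 HepG2-NTCP cells were infected with HBV (4% PEG, 1% DMSO) in the presence of compound overnight, then re-dosed and incubated 5 days at 37 °C. HBcAg immunofluorescence was imaged, with DAPI nuclei count taken as toxicity. Ten-point 1/3 dilutions gave % inhibition against 0.2% DMSO vehicle and 100 nM Myrcludex B, with dose-response curves fitted.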

pIC50 | Structure (SMILES)
9.00 to 12.00 | COCCCOc1cc2c(cc1Cl)-c1c(cc(C(=O)O)c(=O)n1C1CC1)CO2 [Compound 6, 9-chloro-1-cyclopropyl-8-(3-methoxypropoxy) -2-oxo-5H-chromeno[4,3-b]pyridine-3-carboxylic acid]
9.00 to 12.00 | CCC1Oc2cc(OCCCOC)c(F)cc2-c2c1cc(C(=O)O)c(=O)n2C1CC1 (stereo not drawn) [Compound 16, 1-cyclopropyl-5-ethyl-9-fluoro-8-(3-methoxypropoxy) -2-oxo-5H-chromeno[4,3-b]pyridine-3-carboxylic acid]
9.00 to 12.00 | COCCCOc1cc2c(cc1Cl)-c1c(cc(C(=O)O)c(=O)n1C1CC1)C(C(C)(C)COC)O2 (stereo not drawn) [Compound 19, 9-chloro-1-cyclopropyl-5-(2-methoxy-1,1-dimethyl-ethyl)-8-(3-methoxypropoxy) -2-oxo-5H-chromeno[4,3-b]pyridine-3-carboxylic acid]
9.00 to 12.00 | COCCCOc1cc2c(cc1Cl)-c1c(cc(C(=O)O)c(=O)n1C1CC1)[C@H](C1(C)COC1)O2 [Compound 46, (5R)-9-chloro-1-cyclopropyl-8-(3-methoxypropoxy)-5-(3-methyloxetan-3-yl)-2-oxo-5H-chromeno[4,3-b]pyridine-3-carboxylic acid]

More lines, now with the values behind:

Structure (SMILES) | pIC50
COCCCOc1cc2c(cc1F)-c1c(cc(C(=O)O)c(=O)n1C1CC1)C(C(C)C)O2 (stereo not drawn) [Compound 1, 1-cyclopropyl-9-fluoro-5-isopropyl-8-(3-methoxypropoxy)-2-oxo-5H-chromeno[4,3-b]pyridine-3-carboxylic acid] | 9.00 to 12.00
COCCCOc1cc2c(cc1F)-c1c(cc(C(=O)O)c(=O)n1C1CC1)[C@H](C(C)C)O2 [Compound 44, (5S)-1-cyclopropyl-9-fluoro-5-isopropyl-8-(3-methoxypropoxy)-2-oxo-5H-chromeno[4,3-b]pyridine-3-carboxylic acid] | 9.00 to 12.00
